This note sets out measurements from patent US7659270B2, “Hepatitis C virus inhibitors” (Bristol-Myers Squibb Company, priority 2006, dated 2010).

Like-named read-outs stand apart in the source and are kept apart here.

This assay concerns HCV 1b-377-neo replicon cells. Description: HCV replicon assay (HCV 1b-377-neo replicon cells). Type of assay: cell-based, Hepatitis C virus genotype 1b. The procedure: An HCV Replion assay was utilized in the present disclosure, and was prepared, conducted and validated as described in commonly owned PCT/US2006/022197 and in O'Boyle et. al. Antimicrob Agents Chemother. April 2005;49(4): 1346-53.
HCV 1b-377-neo replicon cells were used to test the currently described compound series as well as cells resistant to compound A due to a Y2065H mutation in NS5A (described in application PCT/US2006/022197). The compounds tested were determined to have more than 10-fold less inhibitory activity on cells resistant to compound A than wild-type cells indicating a related mechanism of action between the two compound series. Thus, the compounds of the present disclosure can be effective to inhibit the function of the HCV NS5A protein and are understood to be as effective in combinations as previously described in application PCT/US2006/022197 and commonly owned WO/04014852. Further, the compounds of the present disclosure can be effective against the HCV 1b genotype. It should also be understood that the compounds of the present disclosure can inhibit multiple genotypes of HCV. […] In one embodiment compounds of the present disclosure are active against the 1a, 1b, 2a, 2b, 3a, 4a, and 5a genotypes.
In general terms: A replicon is a self-replicating genome or part of one, used to study replication in cells.

[1] abbreviates: Hepatitis C virus, read-out: EC50 range against HCV 1b (Range).

For `COC(=O)N[C@@H](C(=O)N(C)[C@@H](C)c1ncc(-c2ccc(-c3ccc(-c4cnc([C@@H]5CCCN5C(=O)[C@H](NC(=O)OC)c5ccccc5)[nH]4)cc3)cc2)[nH]1)c1ccccc1` [Example 24-18-4, methyl ((1R)-2-((2S)-2-(5-(4′-(2-((1S)-1-(((2R)-2-((methoxy-carbonyl)a-mino)-2-phenyl-acetyl)(meth-yl)ami-no)ethyl)-1H-imidazol-5-yl)-4-bi-phenylyl)-1H-imidazol-2-yl)-1-pyrrolidi-nyl)-2-oxo-1-phenyl-ethyl)carba-mate], the 50% effective concentration (EC50) under setting [1] was 0.01 to 0.999 nM.

`C[C@H](NC(=O)[C@@H](c1ccccc1)N(C)C)c1ncc(-c2ccc(-c3ccc(-c4cnc([C@@H]5CCCN5C(=O)[C@@H](c5ccccc5)N(C)C)[nH]4)nn3)cc2)[nH]1` [Example 152j-13, (2R)-2-(dimethylamino)-N-((1S)-1-(5-(4-(6-(2-((2S)-1-((2R)-2-(dimethylamino)-2-phenylacetyl)-2-pyrrolidinyl)-1H-imidazol-5-yl)-3-pyridazinyl)phenyl)-1H-imidazol-2-yl)ethyl)-2-phenylacetamide]: the EC50 under setting [1] is 1 to 99 nM.

As to `COC(=O)N[C@@H](C(=O)N1CCC[C@H]1c1ncc(-c2cnc(-c3cnc(-c4cnc([C@@H]5CCCN5C(=O)[C@H](NC(=O)OC)c5ccccc5)[nH]4)cn3)cn2)[nH]1)c1ccccc1` [Example 153c-6, dimethyl (2,2′-bipyrazine-5,5′-diylbis(1H-imi-dazole-5,2-diyl (2S)-2,1-pyrrolidine-diyl((1R)-2-oxo-1-phe-nyl-2,1-ethane-diyl)))biscarba-mate], the EC50 under setting [1] lay in the range of 1 to 99 nM.

Take `C[C@@H](c1ncc(-c2ccc(-c3ccc(-c4cnc([C@H](C)N(C)C(=O)[C@@H](c5ccccc5)N5CCCCC5)[nH]4)cc3)cc2)[nH]1)N(C)C(=O)[C@@H](c1ccccc1)N1CCCCC1` [Example 24-18-3, (2R,2′R)-N,N′-(4,4′-biphenyl-diylbis(1H-imidazole-5,2-diyl(1S)-1,1-ethane-diyl))bis(N-meth-yl-2-phenyl-2-(1-piperi-dinyl)acet-amide)]: the EC50 under setting [1] lay in the range of 0.01 to 0.999 nM.

Take `COC(=O)N[C@@H](C)C(=O)N1CCC[C@H]1c1ncc(-c2cnc(-c3ccc(-c4[nH]c([C@@H]5CCCN5C(=O)[C@H](C)NC(=O)OC)nc4C(F)(F)F)cc3)nc2)[nH]1` [Example J50, methyl ((1S)-2-((2S)-2-(5-(4-(5-(2-((2S)-1-(N-(methoxy-carbonyl)-L-alanyl)-2-pyrrolidinyl)-1H-imidazol-5-yl)-2-pyrimi-dinyl)phenyl)-4-(trifluoromethyl)-1H-imida-zol-2-yl)-1-pyrrolidinyl)-1-methyl-2-oxoeth-yl)carbamate]: the EC50 under setting [1] was 0.01 to 0.999 nM.

`CN(C)[C@@H](C(=O)N1CSC[C@H]1c1ncc(-c2ccc(-c3ccc(-c4cnc([C@@H]5CSCN5C(=O)[C@@H](c5ccccc5)N(C)C)[nH]4)cc3)cc2)[nH]1)c1ccccc1` [Example 148, (1R,1′R)-2,2′-(4,4′-biphenyldiylbis(1H-imidazole-5,2-diyl(4R)-1,3-thiazolidine-4,3-diyl))bis(N,N-dimethyl-2-oxo-1-phenylethanamine)]: the EC50 under setting [1] was in the range of 1 to 99 nM.

On to `COC(=O)N[C@@H](C(=O)N(C)[C@@H](C)c1ncc(-c2ccc(-c3ccc(-c4cnc([C@H](C)N(C)C(=O)[C@H](NC(=O)OC)c5ccccc5)[nH]4)cc3)cc2)[nH]1)c1ccccc1` [Example 24-18-1, dimethyl (4,4′-biphenyl-diylbis(1H-imidazole-5,2-diyl(1S)-1,1-ethane-diyl(methyli-mino)(1R)-2-oxo-1-phenyl-2,1-ethane-diyl)))biscar-bamate], for which the EC50 under setting [1] fell in the range of 0.01 to 0.999 nM.

Regarding `COC(=O)N[C@@H](C(=O)N[C@@H](C)c1ncc(-c2ccc(-c3ncc(-c4cnc([C@@H]5CCCN5C(=O)[C@@H](c5ccccc5)N5CCCCC5)[nH]4)cn3)cc2)[nH]1)c1ccccc1` [Example 152l-2, methyl ((1R)-2-oxo-1-phen-yl-2-(((1S)-1-(4-(4-(5-(2-((2S)-1-((2R)-2-phenyl-2-(1-piperi-dinyl)acetyl)-2-pyrrolidinyl)-1H-imidazol-5-yl)-2-pyrimi-dinyl)phenyl)-1H-imidazol-2-yl)eth-yl)amino)ethyl)car-bamate], the EC50 under setting [1] lay in the range of 0.01 to 0.999 nM.

With `COC(=O)N[C@H](C(=O)N1CCC[C@H]1c1ncc(-c2ccc(-c3ccc(-c4cnc([C@@H]5CCCN5C(=O)[C@@H](NC(=O)OC)C(C)C)[nH]4)cc3CO)cc2)[nH]1)C(C)C` [Example M119, methyl((1S)-1-(((2S)-2-(5-(2-(hydroxymethyl)-4′-(2-((2S)-1-((2S)-2-((methoxycarbonyl)amino)-3-methylbutanoyl)-2-pyrrolidinyl)-1H-imidazol-5-yl)-4-biphenylyl)-1H-imidazol-2-yl)-1-pyrrolidinyl)carbonyl)-2-methylpropyl)carbamate], the EC50 under setting [1] was 100 to 999 nM.

In the case of `C[C@H](NC(=O)[C@@H](c1ccccc1)N(C)C)c1ncc(-c2ccc(-c3ccc(-c4cnc([C@H](C)NC(=O)[C@@H](c5ccccc5)N(C)C)[nH]4)cn3)cc2)[nH]1` [Example 152j-24, (2R)-2-(dimethylamino)-N-((1S)-1-(5-(6-(4-(2-((1S)-1-(((2R)-2-(dimethylamino)-2-phenyl-acetyl)amino)eth-yl)-1H-imidazol-5-yl)phenyl)-3-pyridinyl)-1H-imidazol-2-yl)ethyl)-2-phenylacetamide], the EC50 under setting [1] is 0.01 to 0.999 nM.

As for `COC(=O)N[C@@H](C(=O)N1CCC[C@H]1c1ncc(-c2ccc(-c3ccc(-c4cnc([C@@H]5CCCN5C(=O)C5CCN(C)CC5)[nH]4)cn3)cc2)[nH]1)c1ccccc1` [Example 142, methyl ((1R)-2-((2S)-2-(5-(4-(5-(2-((2S)-1-((1-methyl-4-piperidinyl)carbonyl)-2-pyrrolidinyl)-1H-imidazol-5-yl)-2-pyridinyl)phenyl)-1H-imidazol-2-yl)-1-pyrrolidinyl)-2-oxo-1-phenylethyl)carbamate], under setting [1], the EC50 fell in the range of 1 to 99 nM.

Regarding `COC(=O)N[C@@H](C(=O)N[C@@H](C)c1ncc(-c2ccc(-c3ncc(-c4cnc([C@@H]5CCCN5C(=O)[C@H](NC(=O)OC)c5ccccc5)[nH]4)cn3)cc2)[nH]1)c1ccccc1` [Example 152j-15, methyl ((1R)-2-((2S)-2-(5-(2-(4-(2-((1S)-1-(((2R)-2-((methoxycarbonyl)a-mino)-2-phenyl-acetyl)amino)eth-yl)-1H-imidazol-5-yl)phenyl)-5-pyrimidinyl)-1H-imidazol-2-yl)-1-pyrrolidinyl)-2-oxo-1-phenylethyl)carbamate], under setting [1], the EC50 was 0.01 to 0.999 nM.

Take `COC(=O)N[C@H](C(=O)N1CCC[C@H]1c1nc(-c2cnc(-c3ccc(-c4cnc([C@@H]5CCCN5C(=O)[C@@H](NC(=O)OC)C5CC5)[nH]4)cc3)nc2)c[nH]1)C1CC1` [Example D75, methyl ((1S)-1-cyclopropyl-2-((2S)-2-(5-(2-(4-(2-((2S)-1-((2S)-2-cyclopropyl-2-((methoxy-carbonyl)amino)ace-tyl)-2-pyrroli-dinyl)-1H-imidazol-5-yl)phenyl)-5-pyrimi-dinyl)-1H-imida-zol-2-yl)-1-pyrroli-dinyl)-2-oxoeth-yl)carbamate]: the EC50 under setting [1] lay within 0.01 to 0.999 nM.

Consider `COC(=O)N[C@@H](C(=O)N[C@@H](C)c1ncc(-c2cnc(-c3ccc(-c4cnc([C@@H]5CCCN5C(=O)[C@H](NC(=O)OC)c5ccccc5)[nH]4)cc3)cn2)[nH]1)c1ccccc1` [Example 152j-19, methyl ((1R)-2-((2S)-2-(5-(4-(5-(2-((1S)-1-(((2R)-2-((methoxycarbonyl)a-mino)-2-phenyl-acetyl)amino)eth-yl)-1H-imidazol-5-yl)-2-pyrazinyl)phenyl)-1H-imidazol-2-yl)-1-pyrrolidinyl)-2-oxo-1-phenylethyl)carbamate], for which the EC50 under setting [1] lay in the range of 0.01 to 0.999 nM.

As for `CCC(C)NCC(=O)N1CCC[C@H]1c1ncc(-c2ccc(-c3ccc(-c4cnc([C@@H]5CCCN5C(=O)[C@@H](NC(=O)OC)C(C)C)[nH]4)cc3)cc2)[nH]1` (stereo partly drawn) [LS24], for the setting “read-out: EC50 range against HCV 1b (Range)”, the EC50 lay in the range of 0.01 to 0.999 nM.

Take `CN(C)[C@@H](C(=O)N1CCC[C@H]1c1nc(-c2ccc(-c3ccc(-c4cn(C)c([C@@H]5CCCN5C(=O)[C@@H](c5ccccc5)N(C)C)n4)cc3)cc2)cn1C)c1ccccc1` (single isomer, unassigned) [Example 151 isomer 1]: the EC50 (listed as 151 isomer 1, read-out: EC50 range against HCV 1b (Range)) fell in the range of 1 to 99 nM.

For the compound `COC(=O)N[C@@H](C)C(=O)N1CCC[C@H]1c1nc(-c2cnc(-c3ccc(-c4cnc([C@@H]5CCCN5C(=O)[C@H](C)NC(=O)OC)[nH]4)c(F)c3)nc2)c[nH]1` [Example D67, methyl ((1S)-2-((2S)-2-(5-(2-flouro-4-(5-(2-((2S)-1-(N-(methoxy-carbonyl)-L-alanyl)-2-pyrroli-dinyl)-1H-imida-zol-5-yl)-2-pyrimi-dinyl)phenyl)-1H-imida-zol-2-yl)-1-pyrrolidinyl)-1-methyl-2-oxoeth-yl)carbamate], the EC50 under setting [1] lay within 0.01 to 0.999 nM.

As for `CCN(CC)[C@@H](C(=O)N1CCC[C@H]1c1ncc(-c2ccc(-c3ncc(-c4c[nH]c([C@@H]5CCCN5C(=O)[C@H](C)NC(=O)OC)n4)cn3)cc2)[nH]1)c1ccccc1` [Example D77, methyl ((1S)-2-((2S)-2-(5-(2-(4-(2-((2S)-1-((2R)-2-(diethyl-amino)-2-phenyl-acetyl)-2-pyrroli-dinyl)-1H-imidazol-5-yl)phenyl)-5-pyrimi-dinyl)-1H-imida-zol-2-yl)-1-pyrrolidinyl)-1-methyl-2-oxoeth-yl)carbamate], the EC50 under setting [1] is 0.01 to 0.999 nM.

What is called EC50 is the concentration giving half of the maximal effect.
